Data as given in article PMC3080024 (Synapse (New York, N.Y.), 2010).
“And” between values parts separate entries of the source, which are not always exact repeats. Equal entries are not always repeated. Where two headings read alike, the source gives them in different places.

Legend:
[1] = Cerebellar kinetics by PET, single-tissue compartment model; conditions: for cerebellar clearance rate, slow component: exponential fit, t > 30 minutes
5-HT1A receptor sites = test: Estimated occupancy by unlabeled ligand mass in the PET studies; format: in vivo, rhesus monkey; conditions: for occupancy of the unlabeled drug: comparable ED50 assumed; for occupancy at the 5-HT1A receptor sites: estimated from rat ED50
[2] = Arterial plasma kinetics of parent radiotracer; conditions: for fraction of radioactivity in the plasma due to parent radiotracer: 30 minutes after injection; for clearance rate from the arterial plasma: after period of rapid clearance (>30 minutes), bolus injection
5-HT1A receptor [3] = target: T1, 5-HT1A receptor (Macaca mulatta, UniProt F7GIU0); format: in vivo, rhesus monkey
T1 sequence (F7GIU0 1-421): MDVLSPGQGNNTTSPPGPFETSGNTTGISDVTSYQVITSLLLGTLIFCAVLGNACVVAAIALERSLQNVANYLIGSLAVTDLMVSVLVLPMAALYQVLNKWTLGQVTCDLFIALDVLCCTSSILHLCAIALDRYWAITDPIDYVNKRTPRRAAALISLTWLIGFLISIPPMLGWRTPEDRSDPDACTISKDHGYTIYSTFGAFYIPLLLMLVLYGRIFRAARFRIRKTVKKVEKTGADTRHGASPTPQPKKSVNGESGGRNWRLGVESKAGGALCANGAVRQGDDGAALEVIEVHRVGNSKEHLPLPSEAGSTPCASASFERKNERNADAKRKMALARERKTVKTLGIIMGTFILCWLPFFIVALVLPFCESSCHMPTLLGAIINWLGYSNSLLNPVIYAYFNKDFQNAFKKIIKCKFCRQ

p-glycoprotein (Pgp) = conditions: cited from earlier work
5-HT1A receptor [4] = conditions: ref Saigal et al., 2006, cited from earlier work
[5] = ref Pike et al., 2000; Saigal et al., 2006; cited from earlier work
[6] = rhesus monkey, previous measurements; ref Saigal et al., 2006; cited from earlier work

COc1ccccc1N1CCN(CCN(C(=O)c2ccc(F)cc2)c2ccccn2)CC1 [[F-18]MPPF, 4-Fluoro-N-[2-[4-(2-methoxyphenyl)piperazin-1-yl]ethyl]-N-pyridin-2-ylbenzamide]
cerebellar clearance rate, slow component [1]: 0.011 min⁻¹
K1 in the cerebellum ([1]; mean over subjects): 1.00 mL/min/mL
k2 in the cerebellum ([1]; mean over subjects): 0.34 min⁻¹
Kp ([1]; rhesus monkey, in vivo, DVND (nondisplaceable distribution volume, K1/k2), cerebellum, subject M4): 2.89
K1 in the cerebellum ([1]; subject M2): 0.90 mL/min/mL
k2 in the cerebellum ([1]; subject M2): 0.29 min⁻¹
K1 in the cerebellum ([1]; subject M3): 1.32 mL/min/mL
k2 in the cerebellum ([1]; subject M3): 0.45 min⁻¹
K1 in the cerebellum ([1]; subject M4): 0.78 mL/min/mL
k2 in the cerebellum ([1]; subject M4): 0.27 min⁻¹
occupancy of the unlabeled drug (5-HT1A receptor sites): less than 3%
fraction of radioactivity in the plasma due to parent radiotracer [2]: 28%
clearance rate from the arterial plasma [2]: 0.0078 min⁻¹
BPND (5-HT1A receptor [3]; ACG, mean over subjects): 2.1±0.2 and 2.12
BPND (5-HT1A receptor [3]; ACG, subject M1): 2.05
BPND (5-HT1A receptor [3]; ACG, subject M2): 2.19
BPND (5-HT1A receptor [3]; ACG, subject M3): 1.93
BPND (5-HT1A receptor [3]; ACG, subject M4): 2.30
time to plateau of target to CB ratio (pseudoequilibrium) (5-HT1A receptor [3]; IC (intermediate binding)): approximately 20 minutes
BPND (5-HT1A receptor [3]; IC, mean over subjects): 1.2±0.1 and 1.15
BPND (5-HT1A receptor [3]; IC, subject M1): 1.24
BPND (5-HT1A receptor [3]; IC, subject M2): 1.11
BPND (5-HT1A receptor [3]; IC, subject M3): 0.98
BPND (5-HT1A receptor [3]; IC, subject M4): 1.28
BPND (5-HT1A receptor [3]; MTC, mean over subjects): 3.1±0.4 and 3.14
BPND (5-HT1A receptor [3]; MTC, subject M1): 3.01
BPND (5-HT1A receptor [3]; MTC, subject M2): 3.67
BPND (5-HT1A receptor [3]; MTC, subject M3): 2.99
BPND (5-HT1A receptor [3]; MTC, subject M4): 2.88
BPND (5-HT1A receptor [3]; RN, mean over subjects): 1.3±0.3 and 1.34
BPND (5-HT1A receptor [3]; RN, subject M1): 1.49
BPND (5-HT1A receptor [3]; RN, subject M2): 1.71
BPND (5-HT1A receptor [3]; RN, subject M3): 0.98
BPND (5-HT1A receptor [3]; RN, subject M4): 1.18
time to plateau of target to CB ratio (pseudoequilibrium) (5-HT1A receptor [3]; high binding regions): approximately 30 minutes
Pgp substrate (p-glycoprotein (Pgp); ref Passchier et al., 2000): substrate for p-glycoprotein (Pgp)

COc1ccccc1N1CCN(CCN(C(=O)C2CCC(CF)CC2)c2ccccn2)CC1 (stereo not shown) [mefway]
IC50 (5-HT1A receptor [4]; against [F-18]mefway): 25.7 nM
Pgp substrate (p-glycoprotein (Pgp); no reference given): Neither mefway nor WAY100635 have been found to be Pgp substrates

COc1ccccc1N1CCN(CCN(C(=O)C2CCCCC2)c2ccccn2)CC1 [WAY100635]
occupancy at the 5-HT1A receptor sites (5-HT1A receptor sites; M1, injected mass 1.0 nmol/kg): 18%
occupancy at the 5-HT1A receptor sites (5-HT1A receptor sites; M4, injected mass 0.7 nmol/kg): 13%
Pgp substrate (p-glycoprotein (Pgp); not told): Neither mefway nor WAY100635 have been found to be Pgp substrates

COc1ccccc1N1CCN(CCN(C(=O)C2CCCCC2)c2ccccn2)CC1 [[C-11]WAY100635, [Carbonyl-C-11]N-(2-(1-(4-(2-Methoxyphenyl)-piperazinyl)ethyl)-N-pyridinyl) cyclohexanecarboxamide]
DVND (nondisplaceable distribution volume, K1/k2) ([1]; cerebellum, mean over subjects): 2.62
DVND (nondisplaceable distribution volume, K1/k2) ([1]; cerebellum, subject M1): 2.55
DVND (nondisplaceable distribution volume, K1/k2) ([1]; cerebellum, subject M3): 2.62
DVND (nondisplaceable distribution volume, K1/k2) ([1]; cerebellum, subject M4): 2.70
cerebellar clearance rate, slow component [1]: 0.014 min⁻¹
K1 in the cerebellum ([1]; mean over subjects): 0.74 mL/min/mL
k2 in the cerebellum ([1]; mean over subjects): 0.28 min⁻¹
K1 in the cerebellum ([1]; subject M1): 0.51 mL/min/mL
k2 in the cerebellum ([1]; subject M1): 0.20 min⁻¹
K1 in the cerebellum ([1]; subject M3): 1.10 mL/min/mL
k2 in the cerebellum ([1]; subject M3): 0.42 min⁻¹
K1 in the cerebellum ([1]; subject M4): 0.62 mL/min/mL
k2 in the cerebellum ([1]; subject M4): 0.23 min⁻¹
logP [5]: 3.28
fraction of radioactivity in the plasma due to parent radiotracer [2]: 29%
clearance rate from the arterial plasma [2]: 0.0069 min⁻¹
BPND (5-HT1A receptor [3]; ACG, mean over subjects): 7.9±1.2 and 7.92
BPND (5-HT1A receptor [3]; ACG, subject M1): 6.90
BPND (5-HT1A receptor [3]; ACG, subject M3): 7.64
BPND (5-HT1A receptor [3]; ACG, subject M4): 9.21
BPND (5-HT1A receptor [3]; IC, mean over subjects): 4.7±1.0 and 4.65
BPND (5-HT1A receptor [3]; IC, subject M1): 4.08
BPND (5-HT1A receptor [3]; IC, subject M3): 4.11
BPND (5-HT1A receptor [3]; IC, subject M4): 5.77
BPND (5-HT1A receptor [3]; MTC, mean over subjects): 7.0±1.2 and 7.00
BPND (5-HT1A receptor [3]; MTC, subject M1): 5.97
BPND (5-HT1A receptor [3]; MTC, subject M3): 8.37
BPND (5-HT1A receptor [3]; MTC, subject M4): 6.66
BPND (5-HT1A receptor [3]; RN, mean over subjects): 3.3±0.7 and 3.27
BPND (5-HT1A receptor [3]; RN, subject M1): 3.97
BPND (5-HT1A receptor [3]; RN, subject M3): 2.66
BPND (5-HT1A receptor [3]; RN, subject M4): 3.17

COc1ccccc1N1CCN(CCN(C(=O)C2CCC(C[18F])CC2)c2ccccn2)CC1 (stereo not shown) [[F-18]mefway, N-{2-[4-(2-methoxyphenyl)piperazinyl]ethyl}-N-(2-pyridyl)-N-(4-[F-18]-fluoromethylcyclohexane)carboxamide]
displacement of binding (5-HT1A receptor [4]; competition of 10 μM of WAY100635): almost completely displaced
DVND (nondisplaceable distribution volume, K1/k2) ([1]; cerebellum, mean over subjects): 4.02
DVND (nondisplaceable distribution volume, K1/k2) ([1]; cerebellum, subject M1): 4.92
DVND (nondisplaceable distribution volume, K1/k2) ([1]; cerebellum, subject M2): 3.53
DVND (nondisplaceable distribution volume, K1/k2) ([1]; cerebellum, subject M3): 4.22
DVND (nondisplaceable distribution volume, K1/k2) ([1]; cerebellum, subject M4): 3.41
cerebellar clearance rate, slow component [1]: 0.010 min⁻¹
K1 in the cerebellum ([1]; mean over subjects): 1.02 mL/min/mL
k2 in the cerebellum ([1]; mean over subjects): 0.27 min⁻¹
K1 in the cerebellum ([1]; subject M1): 0.59 mL/min/mL
k2 in the cerebellum ([1]; subject M1): 0.12 min⁻¹
K1 in the cerebellum ([1]; subject M2): 1.34 mL/min/mL
k2 in the cerebellum ([1]; subject M2): 0.38 min⁻¹
K1 in the cerebellum ([1]; subject M3): 1.14 mL/min/mL
k2 in the cerebellum ([1]; subject M3): 0.27 min⁻¹
K1 in the cerebellum ([1]; subject M4): 0.99 mL/min/mL
k2 in the cerebellum ([1]; subject M4): 0.29 min⁻¹
occupancy of the unlabeled drug (5-HT1A receptor sites): less than 3%
logP [5]: 2.62
fraction of radioactivity in the plasma due to parent radiotracer [2]: 19%
clearance rate from the arterial plasma [2]: 0.0031 min⁻¹
BPND (5-HT1A receptor [3]; ACG, mean over subjects): 7.2±1.2
BPND (5-HT1A receptor [3]; ACG, mean over subjects, listed as [F-18]MEFWAY): 7.15
BPND (5-HT1A receptor [3]; ACG, subject M1): 6.92
BPND (5-HT1A receptor [3]; ACG, subject M2): 7.00
BPND (5-HT1A receptor [3]; ACG, subject M3): 5.87
BPND (5-HT1A receptor [3]; ACG, subject M4): 8.82
BPND (5-HT1A receptor [3]; IC, mean over subjects): 4.2±0.6
BPND (5-HT1A receptor [3]; IC, mean over subjects, listed as [F-18]MEFWAY): 4.16
BPND (5-HT1A receptor [3]; IC, subject M1): 4.51
BPND (5-HT1A receptor [3]; IC, subject M2): 3.57
BPND (5-HT1A receptor [3]; IC, subject M3): 3.72
BPND (5-HT1A receptor [3]; IC, subject M4): 4.83
BPND (5-HT1A receptor [3]; MTC, mean over subjects): 7.4±0.6
BPND (5-HT1A receptor [3]; MTC, mean over subjects, listed as [F-18]MEFWAY): 7.36
BPND (5-HT1A receptor [3]; MTC, subject M1): 7.23
BPND (5-HT1A receptor [3]; MTC, subject M2): 8.25
BPND (5-HT1A receptor [3]; MTC, subject M3): 7.17
BPND (5-HT1A receptor [3]; MTC, subject M4): 6.77
plateau of target to CB ratio (5-HT1A receptor [3]; MTC, total time of acquisition): a plateau is not reached within the total time of acquisition
BPND (5-HT1A receptor [3]; RN, mean over subjects): 3.7±0.6
BPND (5-HT1A receptor [3]; RN, mean over subjects, listed as [F-18]MEFWAY): 3.69
BPND (5-HT1A receptor [3]; RN, subject M1): 4.06
BPND (5-HT1A receptor [3]; RN, subject M2): 4.00
BPND (5-HT1A receptor [3]; RN, subject M3): 2.85
BPND (5-HT1A receptor [3]; RN, subject M4): 3.84
time to plateau of target to CB ratio (5-HT1A receptor [3]; high uptake regions, 2 hour scanning period): > 2 h
fraction of radiolabeled lipophilic metabolites [6]: < 10%
